Patent publication US5863889A, “ICAM-1/LFA-1 short-chain peptides and method of using same” (The University of Kansas, priority 1996, dated 1999)

How the values were obtained:
Molt3 cells [1] = experiment: Cell metabolic assay (MTT); format: cell-based
Molt3 cells [2] = experiment: Homotypic adhesion assay (MDHC-induced clumping of T-cells); format: cell-based, human; set-up: key to Homotypic Adhesion Amount: Any sample having a score of "+++" or "++++" is considered to have a significant ability to modulate T-cell binding interaction; Any sample having a score of "+++" or "++++" is considered to have a significant ability to modulate T-cell binding interaction; settings: 10 μM MDHC

SC-3-111: ICAM-1 based short-chain peptide, Sequence ID No. 10 (QTSVSPSKVI)
MTT % Viability (Molt3 cells [1]; peptide 230 μM): 93%
MTT % Viability (Molt3 cells [1]; peptide 460 μM): 95%
MTT % Viability (Molt3 cells [1]; peptide 910 μM): 89%
MTT % Viability (Molt3 cells [1]; peptide 1820 μM): 69%
Homotypic Adhesion Effect (Molt3 cells [2]; peptide 230 μM): Block
Homotypic Adhesion Effect (Molt3 cells [2]; peptide 460 μM): Block
Homotypic Adhesion Amount (Molt3 cells [2]; peptide 910 μM): ++++
Homotypic Adhesion Effect (Molt3 cells [2]; peptide 910 μM): Block
Homotypic Adhesion Amount (Molt3 cells [2]; peptide 1820 μM): +++
Homotypic Adhesion Effect (Molt3 cells [2]; peptide 1820 μM): Block
